pIC50: −log10 of the molar value. Several values for one entry are separate records, joined by “and”; a condition that tells them apart may be missing. Equal values may be shown once.
How the values were obtained:
12-LOX = target: T1, 12-LOX (Homo sapiens, UniProt P18054); assay: ABP-based ELISA assay with A549 cell lysate, 12-LOX; format: biochemical
T1 construct: the endogenous LOXs were captured on an anti‐LOX antibody precoated 96‐well plate; endogenous in cells; host or cells: A549 cell lysate
T1 sequence (P18054 1-663): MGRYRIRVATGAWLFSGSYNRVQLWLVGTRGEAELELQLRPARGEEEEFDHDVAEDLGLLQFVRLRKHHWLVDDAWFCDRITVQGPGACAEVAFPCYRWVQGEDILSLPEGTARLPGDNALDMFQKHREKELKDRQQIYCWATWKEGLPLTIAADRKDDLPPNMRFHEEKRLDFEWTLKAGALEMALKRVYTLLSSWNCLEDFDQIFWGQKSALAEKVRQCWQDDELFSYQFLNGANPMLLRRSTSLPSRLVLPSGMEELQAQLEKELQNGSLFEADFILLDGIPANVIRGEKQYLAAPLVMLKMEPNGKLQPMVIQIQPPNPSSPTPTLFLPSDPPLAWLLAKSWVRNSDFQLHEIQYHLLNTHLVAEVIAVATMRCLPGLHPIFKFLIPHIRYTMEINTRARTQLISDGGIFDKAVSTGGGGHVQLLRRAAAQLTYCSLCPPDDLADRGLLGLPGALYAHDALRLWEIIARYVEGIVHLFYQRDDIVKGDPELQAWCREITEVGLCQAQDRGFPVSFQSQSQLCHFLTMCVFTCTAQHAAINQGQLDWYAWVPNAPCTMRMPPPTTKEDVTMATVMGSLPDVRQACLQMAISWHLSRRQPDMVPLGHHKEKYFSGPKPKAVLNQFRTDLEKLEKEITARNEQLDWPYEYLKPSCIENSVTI
Protocol: (§1) A549 cell lysate was treated with a serial dilution of the respective inhibitor. Subsequently, samples were labeled by treatment with 1 μM of Labelox B for 1 min. […] Data are mean±s.d., n≥3 independent experiments. […]
(§2) 1.6. Immunoblotting Analysis […]
(§3) 1.7. ABPP-based LOX inhibitor specificity validation
(§4) A549 cells were lysed by RIPA buffer supplemented with 1x PIC. After sonication and centrifugation, the supernatant was collected, and the protein concentration was determined by a Pierce BCA Protein Assay Kit (Thermo Fisher Scientific, USA). The lysates were then diluted with PBS to 300 ng/µl and stored in -20°C. To label endogenous LOXs with Labelox B under the competition condition, 180 µl diluted lysates were incubated with 200 µl different LOX inhibitor solution (in PBS) with desired concentrations for 18 min to inhibit LOXs activity. Later, 20 µl of a 20 µM Labelox B (in PBS) was added and incubated shortly for 2 min, followed by adding 50 µl of a 0.5 M EDTA to stop the labeling reaction. The reaction mixture was 450 µl in total. Inhibitors and Labelox B were absent in positive and […]
(§5) negative control, respectively. To detect the competition labeling of Labelox B among different LOXs, a high-binding 96-well plate (Greiner, #M4561) was coated with 5-LOX (#ab169755, Abcam), 12-LOX […]
(1:500 dilution in PBS) for overnight at 4°C. After washing triply with 0.05%PBST, the plate was blocked with 2% (w/v) BSA in PBST. Subsequently, 100 µl of each reaction mixture was added to the LOX-antibody-coated wells. There are four LOX antibodies used for coating. Therefore, in total, 400 µl mixture is needed for each reaction. After one hour of incubation, LOXs were pulled down by antibodies accordingly. Next, 100 µl of HRP-conjugated streptavidin (1:2000 dilution in PBS, Thermo Fisher Scientific, USA) was added to each well to detect the D04 labeled LOXs among precipitated LOXs. After washing with PBST, 100 µl of mixed HRP substrate reagent (R&D Systems, Minneapolis, USA) was added, and the colorizing reaction was stopped by adding 100 µl of 1M sulfuric acid. The absorbance at […]

15-LOX-1 = target: T2, 15-LOX-1 (Homo sapiens, UniProt P16050); assay: ABP-based ELISA assay with recombinant 15-LOX-1 (inhibition of Labelox B labeling); format: biochemical; set-up: His-tag (N); made in house; host or cells: E. coli BL21(DE3)
T2 sequence (P16050 1-662): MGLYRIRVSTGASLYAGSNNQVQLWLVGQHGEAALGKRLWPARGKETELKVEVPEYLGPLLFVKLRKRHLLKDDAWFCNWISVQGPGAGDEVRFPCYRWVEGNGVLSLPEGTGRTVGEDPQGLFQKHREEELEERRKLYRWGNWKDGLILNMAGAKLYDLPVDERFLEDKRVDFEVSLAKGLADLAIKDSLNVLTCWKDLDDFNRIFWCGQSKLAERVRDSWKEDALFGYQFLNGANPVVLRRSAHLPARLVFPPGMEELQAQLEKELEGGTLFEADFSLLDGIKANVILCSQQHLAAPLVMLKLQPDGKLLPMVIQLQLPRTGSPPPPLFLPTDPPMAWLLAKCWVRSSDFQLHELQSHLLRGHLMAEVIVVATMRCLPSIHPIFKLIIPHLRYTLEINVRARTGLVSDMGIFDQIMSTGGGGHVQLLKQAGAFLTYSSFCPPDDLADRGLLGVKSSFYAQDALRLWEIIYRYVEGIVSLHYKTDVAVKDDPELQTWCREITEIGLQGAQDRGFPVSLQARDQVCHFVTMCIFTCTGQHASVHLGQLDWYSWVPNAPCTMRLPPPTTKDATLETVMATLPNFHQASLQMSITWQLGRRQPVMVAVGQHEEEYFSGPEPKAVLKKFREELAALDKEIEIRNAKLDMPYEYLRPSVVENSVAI
Protocol: as §1, §2, §3, §4, §5
(1:500 dilution in PBS) for overnight at 4°C. After washing triply with 0.05%PBST, the plate was blocked with 2% (w/v) BSA in PBST. Subsequently, 100 µl of each reaction mixture was added to the LOX-

| SMILES | HillSlope Value (12-LOX) | Hill slope (15-LOX-1) | IC50 (12-LOX; 1 μM Labelox B) | pIC50 (15-LOX-1; read-out: IC50 for attenuation of Labelox B mediated labeling) |
| --- | --- | --- | --- | --- |
| O=c1cc(-c2ccccc2)oc2cc(O)c(O)c(O)c12 [Baicalein] | -0.41 | lower than 1 | – | – |
| c1ccc2c(c1)SCc1c-2[nH]c2ccccc12 [PD146176] | -0.98 | around 1 | ~17 µM and 19.1 µM | ~4.82 and 4.82 |

Source: PMC8518382, “Identification of a Bromodomain‐like Region in 15‐Lipoxygenase‐1 Explains Its Nuclear Localization” (Angewandte Chemie (International Ed. in English), 2021)
